Measured values published in patent publication EP0251013A2, “Fluorine containing o-aminophenols” (BAYER AG, priority 1986, dated 1988).

Experiments:
Format in all cases: in vivo
Baumwolle [1] = experiment: Pre-emergence test, greenhouse; settings: Baumwolle, 1,0 kg/ha, rated after three weeks vs untreated control (0 % = no effect, 100 % = total destruction)
Excerpt: (§1) Lösungsmittel: 5 Gewichtsteile Aceton Emulgator: 1 Gewichtsteil Alkylarylpolyglykolether
(§2) Zur Herstellung einer zweckmäßigen Wirkstoffzubereitung vermischte man 1 Gewichtsteil Wirkstoff mit der angegebenen Menge Lösungsmittel, gab die angegebene Menge Emulgator zu und verdünnte das Konzentrat mit Wasser auf die gewünschte Konzentration.
(§3) Samen der Testpflanzen wurden in normalen Boden ausgesät und nach 24 Stunden mit der Wirkstoffzubereitung begossen. Dabei wurde die Wassermenge pro Flächeneinheit zweckmäßigerweise konstant gehalten. Die Wirkstoffkonzentration in der Zubereitung spielte keine Rolle, entscheidend war nur die Aufwandmenge des Wirkstoffs pro Flächeneinheit. Nach drei Wochen wurde der Schädigungsgrad der Pflanzen bonitiert in % Schädigung im Vergleich zur Entwicklung der unbehandelten Kontrolle. Es bedeuten: • 0 % = keine Wirkung (wie unbehandelte Kontrolle) • 100 % = totale Vernichtung

Cynodon = experiment: Pre-emergence test, greenhouse; settings: Cynodon, 1,0 kg/ha, rated after three weeks vs untreated control
Excerpt: as §1, §2, §3

Weizen = experiment: Pre-emergence test, greenhouse; settings: Weizen, 1,0 kg/ha, rated after three weeks vs untreated control
Excerpt: as §1, §2, §3

Portulak = experiment: Pre-emergence test, greenhouse; settings: Portulak, 1,0 kg/ha, rated after three weeks vs untreated control
Excerpt: as §1, §2, §3

Matricaria = experiment: Pre-emergence test, greenhouse; settings: Matricaria, 1,0 kg/ha, rated after three weeks vs untreated control
Excerpt: as §1, §2, §3

Datura = experiment: Pre-emergence test, greenhouse; settings: Datura, 1,0 kg/ha, rated after three weeks vs untreated control
Excerpt: as §1, §2, §3

Stellaria = experiment: Pre-emergence test, greenhouse; settings: Stellaria, 1,0 kg/ha, rated after three weeks vs untreated control
Excerpt: as §1, §2, §3

Chenopodium [2] = experiment: Pre-emergence test, greenhouse; settings: Chenopodium, 1,0 kg/ha, rated after three weeks vs untreated control
Excerpt: as §1, §2, §3

Baumwolle [3] = experiment: Post-emergence test, greenhouse; settings: Baumwolle, 0,25 kg/ha, sprayed on plants 5 - 15 cm high, rated after three weeks vs untreated control (0 % = no effect, 100 % = total destruction)
Excerpt: as §1, §2
(§4) Mit der Wirkstoffzubereitung spritzte man Testpflanzen, welche eine Höhe von 5 - 15 cm hatten so, daß die jeweils gewünschten Wirkstoffmengen pro Flächeneinheit ausgebracht wurden. Die Konzentration der Spritzbrühe wurde so gewählt, daß in 2000 1 Wasser/ha die jeweils gewünschten Wirkstoffmengen ausgebracht wurden. Nach drei Wochen wurde der Schädigungsgrad der Pflanzen bonitiert in % Schädigung im Vergleich zur Entwicklung der unbehandelten Kontrolle.
(§5) Es bedeuten: • 0 % = keine Wirkung (wie unbehandelte Kontrolle) • 100 % = totale Vernichtung

Sinapis = experiment: Post-emergence test, greenhouse; settings: Sinapis, 0,25 kg/ha, rated after three weeks vs untreated control
Excerpt: as §1, §2, §4, §5

Echinochloa = experiment: Post-emergence test, greenhouse; settings: Echinochloa, 0,25 kg/ha, rated after three weeks vs untreated control
Excerpt: as §1, §2, §4, §5

Mais = experiment: Post-emergence test, greenhouse; settings: Mais, 0,25 kg/ha, rated after three weeks vs untreated control
Excerpt: as §1, §2, §4, §5

Solanum = experiment: Post-emergence test, greenhouse; settings: Solanum, 0,25 kg/ha, rated after three weeks vs untreated control
Excerpt: as §1, §2, §4, §5

Poa = experiment: Post-emergence test, greenhouse; settings: Poa, 0,25 kg/ha, rated after three weeks vs untreated control
Excerpt: as §1, §2, §4, §5

Chenopodium [4] = experiment: Post-emergence test, greenhouse; settings: Chenopodium, 0,25 kg/ha, rated after three weeks vs untreated control
Excerpt: as §1, §2, §4, §5

For `FC(Cl)(Cl)Sn1c(C(F)(F)F)nc2cc(C(F)(F)F)c(Cl)cc21` [Beispiel 13, 1-Dichlorfluormethylsulfenyl-2,5-bis(trifluormethyl)-6-chlorbenzimidazol], the “Schädigungsgrad der Pflanzen in % Schädigung” value (Baumwolle [1]) was 0%, the “Schädigungsgrad der Pflanzen in % Schädigung” value (Cynodon) was 100% and the “Schädigungsgrad der Pflanzen in % Schädigung” value (Weizen) was 0%. For the same compound, the “Schädigungsgrad der Pflanzen in % Schädigung” value (Portulak) was 100%, the “Schädigungsgrad der Pflanzen in % Schädigung” value (Matricaria) was 80% and the “Schädigungsgrad der Pflanzen in % Schädigung” value (Datura) was 80%. For the same compound, the “Schädigungsgrad der Pflanzen in % Schädigung” value (Stellaria) was 80%, the “Schädigungsgrad der Pflanzen in % Schädigung” value (Chenopodium [2]) was 100% and the “Schädigungsgrad der Pflanzen in % Schädigung” value (Baumwolle [3]) was 20%. For the same compound, the “Schädigungsgrad der Pflanzen in % Schädigung” value (Sinapis) was 100%, the “Schädigungsgrad der Pflanzen in % Schädigung” value (Echinochloa) was 80% and the “Schädigungsgrad der Pflanzen in % Schädigung” value (Mais) was 50%. The “Schädigungsgrad der Pflanzen in % Schädigung” value (Solanum) was 100%, the “Schädigungsgrad der Pflanzen in % Schädigung” value (Poa) was 100% and the “Schädigungsgrad der Pflanzen in % Schädigung” value (Chenopodium [4]) was 100%.
